This note sets out measurements from patent publication EP0411184B1, “Ascorbic acid derivative” (NIPPON HYPOX LABORATORIES INCORPORATED, priority 1989, dated 1991).

pIC50: −log10 of the molar value.

A short description of the test: Antioxidant action using stable radicals: reduction activity of DPPH (M. S. Blois method). Format: biochemical. Particulars: 0.1 mM DPPH solution in ethanol, absorbance at 517 nm after 20 minutes, difference from solvent control (0.5% or less DMF); read-out: 50% radical eliminating concentration. The procedure:
Test example 1 (Antioxidant action examined by using stable radicals)
Reduction activity of α,α-diphenyl-β-picrylhydrazyl (DPPH) which was a stable free radical was examined according to the M. S. Blois method (Nature, vol. 181, page 1199, 1958) and used as an index to antioxidant action. Thus, specimens were added to 3 mℓ of a 0.1 mM DPPH solution in ethanol, and absorbance at a wavelength of 517 nm was measured using a spectrophotometer after 20 minutes. The difference in absorbance from the solvent control [0.5% or less of dimethylformamide (DMF)] was taken as the reduction activity.
(In general: The DPPH test is a chemical assay of radical scavenging.)

For `O=C(O)CCCCCCCCCCOC1=C(O)C(=O)O[C@@H]1[C@@H](O)CO` [compound 114], the pIC50 is 4.62. With `O=C1O[C@H]([C@@H](O)CO)C(OCC(=O)c2ccccc2)=C1O` [compound 112, L-3-O-benzoylmethylascorbic acid], the pIC50 is 4.64. To `CCCCCCCCOC1=C(O)C(=O)O[C@@H]1[C@@H](O)CO` [compound 103] belongs 4.72. With `CC(=O)COC1=C(O)C(=O)O[C@@H]1[C@@H](O)CO` [compound 115], the pIC50 is 4.66. In the case of `CCCCCCCCCCCCCCCCCCOC1=C(O)C(=O)O[C@@H]1[C@@H](O)CO` [compound 101, reference compound] it was 4.49; in that of `CCCCOC(=O)COC1=C(O)C(=O)O[C@@H]1[C@@H](O)CO` [compound 109], 4.74; in that of `CCCCCCCCCCCCOC1=C(O)C(=O)O[C@@H]1[C@@H](O)CO` [compound 102], 4.74. Consider `CCCCOC1=C(O)C(=O)O[C@@H]1[C@@H](O)CO` [compound 104], for which the pIC50 is 4.64. With `CCOC(=O)C(C)OC1=C(O)C(=O)O[C@@H]1[C@@H](O)CO` (stereo partly drawn) [compound 108], the pIC50 was 4.72. To `O=C(O)CCCOC1=C(O)C(=O)O[C@@H]1[C@@H](O)CO` [compound 107] belongs 4.57; to `O=C1O[C@H]([C@@H](O)CO)C(OCc2cccnc2)=C1O` [compound 113, L-3-O-(3-picoyl)ascorbic acid], 4.64.

Take `CCOC(=O)COC1=C(O)C(=O)O[C@@H]1[C@@H](O)CO` [compound 111]: the pIC50 is 4.66. On to `CCOC(=O)CCCOC1=C(O)C(=O)O[C@@H]1[C@@H](O)CO` [compound 106], for which the pIC50 was 4.68.

Turning to `CCOC(=O)CCCCOC1=C(O)C(=O)O[C@@H]1[C@@H](O)CO` [compound 105], the pIC50 is 4.70.

For `CCCCCCCCCCOC(=O)COC1=C(O)C(=O)O[C@@H]1[C@@H](O)CO` [compound 110], the pIC50 was 4.64.
